Test results taken from patent publication US10858339B2, “Aryl cyclopropyl-amino-isoquinolinyl amide compounds” (priority 2017, dated 2020).
Where a name gives a salt, the structure may show the parent alone.

Tests used:
ROCK1 = ROCK1 (Homo sapiens, UniProt Q13464); test: ROCK kinase inhibition assay, ROCK1 enzyme; type: biochemical;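 further: kinase reaction with 0.5 µM final ATP, 75 min at room temperature, remaining ATP read by luminescence, percent of DMSO-only control minus background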
ROCK2 = ROCK2 (Homo sapiens, UniProt O75116); test: biochemical
Sequence of ROCK2 (O75116 whole entry, species assumed, canonical isoform): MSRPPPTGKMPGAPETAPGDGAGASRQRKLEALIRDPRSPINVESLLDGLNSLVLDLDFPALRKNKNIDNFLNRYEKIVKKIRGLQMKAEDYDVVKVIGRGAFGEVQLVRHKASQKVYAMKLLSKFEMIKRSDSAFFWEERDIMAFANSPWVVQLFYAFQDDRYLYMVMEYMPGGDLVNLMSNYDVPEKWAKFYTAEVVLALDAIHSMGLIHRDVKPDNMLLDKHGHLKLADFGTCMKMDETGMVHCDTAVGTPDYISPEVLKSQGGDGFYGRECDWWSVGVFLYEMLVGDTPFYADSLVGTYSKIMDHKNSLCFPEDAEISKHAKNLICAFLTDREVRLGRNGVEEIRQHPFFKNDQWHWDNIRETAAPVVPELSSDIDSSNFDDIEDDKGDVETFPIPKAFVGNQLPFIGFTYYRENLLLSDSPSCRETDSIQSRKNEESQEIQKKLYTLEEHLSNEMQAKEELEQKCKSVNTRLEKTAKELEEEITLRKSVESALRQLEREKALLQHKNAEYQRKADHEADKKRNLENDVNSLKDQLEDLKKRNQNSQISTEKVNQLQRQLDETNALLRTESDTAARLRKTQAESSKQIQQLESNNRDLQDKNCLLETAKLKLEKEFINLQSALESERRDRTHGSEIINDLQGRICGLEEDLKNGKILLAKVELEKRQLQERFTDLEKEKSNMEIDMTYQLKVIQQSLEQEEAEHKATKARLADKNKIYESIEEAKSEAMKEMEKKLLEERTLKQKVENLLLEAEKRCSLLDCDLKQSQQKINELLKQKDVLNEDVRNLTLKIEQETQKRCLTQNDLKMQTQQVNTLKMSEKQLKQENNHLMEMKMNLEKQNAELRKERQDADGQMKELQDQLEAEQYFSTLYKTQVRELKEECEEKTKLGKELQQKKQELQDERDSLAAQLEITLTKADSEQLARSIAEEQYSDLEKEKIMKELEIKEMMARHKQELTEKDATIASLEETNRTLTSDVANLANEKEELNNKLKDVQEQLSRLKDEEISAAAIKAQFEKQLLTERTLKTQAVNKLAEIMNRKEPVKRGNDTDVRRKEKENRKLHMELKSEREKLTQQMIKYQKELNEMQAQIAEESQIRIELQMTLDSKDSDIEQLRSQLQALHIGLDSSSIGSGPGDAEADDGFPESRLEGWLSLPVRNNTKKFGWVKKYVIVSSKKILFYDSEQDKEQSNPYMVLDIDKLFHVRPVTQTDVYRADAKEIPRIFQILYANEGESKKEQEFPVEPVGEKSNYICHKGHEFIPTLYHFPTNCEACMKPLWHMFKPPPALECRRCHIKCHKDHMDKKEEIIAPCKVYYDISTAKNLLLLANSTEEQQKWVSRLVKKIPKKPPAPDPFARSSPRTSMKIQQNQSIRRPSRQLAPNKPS

Rho Kinase = test: ROCK kinase inhibition assay (Rho Kinase Activity, isoform not given); type: biochemical; settings: Table 15, mostly given as ranges
Procedure: All compounds were initially prepared as 10 mM stocks in anhydrous dimethylsulfoxide (DMSO). A 20 μl aliquot of the 10 mM solutions was transferred to individual wells in column 1 of a 96-well polypropylene microtiter plate (Corning #3363) and diluted with DMSO to give a final compound concentration of 4 mM. Test compounds were then serially diluted 1:5 in DMSO for an 11-point concentration response and further diluted in the assay buffer bringing all compound concentrations to a final range of 100 μM to […] in 2.5% DMSO. The assay was performed in white 96-well, flat-bottom, half-area, non-binding assay plate (Corning #3642) in assay buffer consisting of 20 mM HEPES (pH 7.5), 10 mM MgCl2*6H2O, 100 μM sodium orthovanadate, 0.05% CHAPS and 0.1% bovine serum albumin. A 10 μL aliquot of compound from each well of the intermediate dilution plate and 20 μL of a 2× substrate/enzyme solution containing acceptor substrate (800 nM RSK2 peptide […] (SEQ ID NO: 1)), ROCK2 enzyme (10 nM), or ROCK1 enzyme, and 1,4-Dithiothreitol (DTT, 2 uM) were added to all wells. The reaction was initiated by the addition of 10 μL of 4× stock solution ATP (2 μM). Reactions were thoroughly mixed manually, covered and allowed to incubate at room temperature for 75 min. Protein kinase activity was quantitated using Promega's KINASE-GLO™ luminescent Kinase Assay Kit according to the manufacturer's directions. ATP concentrations remaining in Test wells following the termination of the enzymatic reaction were compared against control wells containing equivalent amounts of DMSO containing no inhibitor (CTRL). […] Percent of Control (POC) values were determined for each concentration of compound tested according to the equation: POC=((Test well value−BKG)/(CTRL−BKG))*100
IC50 values were converted to K; […]

JAK2 = JAK2 (Homo sapiens, UniProt O60674); test: JAK kinase assay, JAK2 enzyme; type: biochemical; settings: for Ki: Table 15, in brackets in the activity cell, read-out: JAK2 activity;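 on all read-outs here: JAK2 kinase reaction run 75 min at room temperature, leftover ATP read by Kinase-Glo luminescence, 11-point dilution series in 2.5% DMSO, percent of inhibitor-free DMSO control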
Sequence of JAK2 (O60674 whole entry, species assumed): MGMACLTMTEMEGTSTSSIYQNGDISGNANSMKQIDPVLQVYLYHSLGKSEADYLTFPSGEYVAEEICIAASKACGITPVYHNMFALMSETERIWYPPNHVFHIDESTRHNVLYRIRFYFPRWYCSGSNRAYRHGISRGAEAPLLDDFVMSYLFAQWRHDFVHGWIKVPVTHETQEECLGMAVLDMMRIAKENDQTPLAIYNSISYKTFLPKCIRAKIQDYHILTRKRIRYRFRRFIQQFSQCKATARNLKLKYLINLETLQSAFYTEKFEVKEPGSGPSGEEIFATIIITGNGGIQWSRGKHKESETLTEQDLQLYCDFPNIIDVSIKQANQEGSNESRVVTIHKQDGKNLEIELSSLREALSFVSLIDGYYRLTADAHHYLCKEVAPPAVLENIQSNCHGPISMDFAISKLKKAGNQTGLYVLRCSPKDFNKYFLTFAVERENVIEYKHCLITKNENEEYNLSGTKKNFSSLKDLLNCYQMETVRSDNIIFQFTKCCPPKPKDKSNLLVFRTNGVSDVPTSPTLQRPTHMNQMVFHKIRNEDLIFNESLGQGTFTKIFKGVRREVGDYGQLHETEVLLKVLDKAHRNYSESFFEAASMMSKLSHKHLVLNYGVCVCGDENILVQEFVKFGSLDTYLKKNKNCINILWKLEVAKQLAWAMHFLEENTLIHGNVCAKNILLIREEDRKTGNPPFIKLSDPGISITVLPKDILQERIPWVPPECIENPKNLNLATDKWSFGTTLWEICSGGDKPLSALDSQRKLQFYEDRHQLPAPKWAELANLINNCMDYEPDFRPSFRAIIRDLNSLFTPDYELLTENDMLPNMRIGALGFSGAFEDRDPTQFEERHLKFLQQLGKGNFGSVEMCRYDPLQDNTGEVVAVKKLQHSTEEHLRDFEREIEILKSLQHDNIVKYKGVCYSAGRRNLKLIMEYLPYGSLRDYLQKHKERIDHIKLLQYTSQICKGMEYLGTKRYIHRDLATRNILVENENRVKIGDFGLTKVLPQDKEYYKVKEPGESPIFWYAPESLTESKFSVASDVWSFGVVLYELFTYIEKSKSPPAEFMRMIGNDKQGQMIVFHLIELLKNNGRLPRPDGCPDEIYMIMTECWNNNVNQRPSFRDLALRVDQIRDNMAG

Sequence of ROCK1 (Q13464 whole entry, species assumed): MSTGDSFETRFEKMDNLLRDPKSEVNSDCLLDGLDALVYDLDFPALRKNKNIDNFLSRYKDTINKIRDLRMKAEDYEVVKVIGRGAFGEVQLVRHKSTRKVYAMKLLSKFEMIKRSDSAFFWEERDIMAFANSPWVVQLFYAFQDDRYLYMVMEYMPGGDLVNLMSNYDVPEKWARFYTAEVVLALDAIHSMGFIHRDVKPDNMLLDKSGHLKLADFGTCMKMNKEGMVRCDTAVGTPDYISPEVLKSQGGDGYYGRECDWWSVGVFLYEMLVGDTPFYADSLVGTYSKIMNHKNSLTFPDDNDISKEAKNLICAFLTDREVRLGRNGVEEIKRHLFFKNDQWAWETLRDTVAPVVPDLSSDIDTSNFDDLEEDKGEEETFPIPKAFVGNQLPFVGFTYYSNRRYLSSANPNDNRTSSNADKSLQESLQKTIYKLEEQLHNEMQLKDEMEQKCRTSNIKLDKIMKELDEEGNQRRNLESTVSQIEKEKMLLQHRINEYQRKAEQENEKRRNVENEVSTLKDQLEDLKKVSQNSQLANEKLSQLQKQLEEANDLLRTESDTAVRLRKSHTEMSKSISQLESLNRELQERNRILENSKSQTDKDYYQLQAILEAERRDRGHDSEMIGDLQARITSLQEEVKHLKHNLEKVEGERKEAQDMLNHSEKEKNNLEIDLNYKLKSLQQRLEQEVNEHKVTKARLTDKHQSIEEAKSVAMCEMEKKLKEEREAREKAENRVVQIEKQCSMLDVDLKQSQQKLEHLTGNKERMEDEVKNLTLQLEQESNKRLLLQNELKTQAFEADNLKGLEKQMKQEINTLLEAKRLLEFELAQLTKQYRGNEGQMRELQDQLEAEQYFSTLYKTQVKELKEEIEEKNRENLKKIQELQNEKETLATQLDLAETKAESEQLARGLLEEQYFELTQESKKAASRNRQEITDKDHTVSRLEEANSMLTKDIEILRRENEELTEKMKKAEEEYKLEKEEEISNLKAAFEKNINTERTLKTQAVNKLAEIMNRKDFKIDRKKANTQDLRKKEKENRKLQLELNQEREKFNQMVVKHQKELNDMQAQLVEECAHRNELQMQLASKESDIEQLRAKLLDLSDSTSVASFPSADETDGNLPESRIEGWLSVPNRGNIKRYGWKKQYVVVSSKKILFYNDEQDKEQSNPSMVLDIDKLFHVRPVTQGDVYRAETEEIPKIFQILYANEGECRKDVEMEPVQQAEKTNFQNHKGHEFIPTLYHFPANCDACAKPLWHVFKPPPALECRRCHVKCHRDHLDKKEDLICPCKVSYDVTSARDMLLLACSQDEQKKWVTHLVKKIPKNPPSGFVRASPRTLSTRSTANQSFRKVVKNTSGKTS

Compound | Ki (Rho Kinase) | Ki (JAK2) | further results
O=C(Nc1ccc2cnccc2c1)[C@@H]1C[C@H]1c1ccc(S(=O)(=O)Nc2ccccc2)cc1 (racemic) [(rel)-(1R,2R)-N-(isoquinolin-6-yl)-2-(4-(N-phenylsulfamoyl)phenyl)cyclopropane-1-carboxamide] |  |  | Ki (ROCK1; ROCK1, Table 17): 154 nM; Ki (ROCK2; ROCK2, Table 17): 75 nM
O=C(Nc1ccc2cnccc2c1)[C@@H]1C[C@H]1c1ccc(S(=O)(=O)NC[C@H]2CCCNC2)cc1 (relative stereo) [(rel)-(1R,2R)-N-(isoquinolin-6-yl)-2-(4-(N-(((S)-piperidin-3-yl)methyl)sulfamoyl)phenyl) cyclopropane-1-carboxamide dihydrochloride] |  |  | Ki (ROCK1; ROCK1, Table 17): 5 nM; Ki (ROCK2; ROCK2, Table 17): 5 nM
O=C(Nc1ccc2cnccc2c1)[C@@H]1C[C@H]1c1ccc(S(=O)(=O)NC2CCNCC2)cc1 (relative stereo) [(rel)-(1R,2R)-N-(isoquinolin-6-yl)-2-(4-(N-(piperidin-4-yl)sulfamoyl)phenyl) cyclopropane-1-carboxamide dihydrochloride] |  |  | Ki (ROCK1; ROCK1, Table 17): 8.2 nM; Ki (ROCK2; ROCK2, Table 17): 7 nM
O=C(Nc1ccc2cnccc2c1)[C@@H]1C[C@H]1c1ccc(S(=O)(=O)NCc2cccnc2)cc1 (relative stereo) [(rel)-(1R,2R)-N-(isoquinolin-6-yl)-2-(4-(N-(pyridin-3-ylmethyl)sulfamoyl)phenyl) cyclopropane-1-carboxamide] |  |  | Ki (ROCK1; ROCK1, Table 17): 25 nM; Ki (ROCK2; ROCK2, Table 17): 9 nM
O=C(Nc1ccc2cnccc2c1)[C@@H]1C[C@H]1c1ccc(S(=O)(=O)N2CCNCC2)cc1 (relative stereo) [(rel)-(1R,2R)-N-(isoquinolin-6-yl)-2-(4-(piperazin-1-ylsulfonyl)phenyl) cyclopropane-1-carboxamide dihydrochloride] |  |  | Ki (ROCK1; ROCK1, Table 17): 48 nM; Ki (ROCK2; ROCK2, Table 17): 31 nM
O=C(Nc1ccc2cnccc2c1)[C@@H]1C[C@H]1c1ccc(I)cc1 (relative stereo) [Example E251, rel-(1R,2R)-2-(4-iodophenyl)-N-(isoquinolin-6-yl)cyclopropane-1-carboxamide] | 150 to 400 nM | 500 to 800 nM | 
O=C(Nc1ccc2cnccc2c1)[C@@H]1C[C@H]1c1ccc(S(=O)(=O)NCC2CCNCC2)cc1 (relative stereo) [drawing 663, (rel)-(1R,2R)-N-(isoquinolin-6-yl)-2-(4-(N-(piperidin-4-ylmethyl)sulfamoyl)phenyl) cyclopropane-1-carboxamide dihydrochloride] |  |  | Ki (ROCK1; ROCK1, Table 17): 9 nM; Ki (ROCK2; ROCK2, Table 17): 8 nM
CC(C)(C)OC(=O)N1CCCC1CNC(=O)c1ccc(C2CC2C(=O)Nc2ccc3cnccc3c2)cc1 (stereo not drawn) [Example 19.1] | 30 to 60 nM | 1500 to 3500 nM | 
O=C(NCc1ccccn1)c1ccc(C2CC2C(=O)Nc2ccc3cnccc3c2)cc1 (stereo not drawn) [Example E9] | 3 to 5 nM | 65 to 100 nM | 
O=C(Nc1ccncc1)c1ccc(C2CC2C(=O)Nc2ccc3cnccc3c2)cc1 (stereo not drawn) [Example E12] | 1 to 4 nM | 400 nM | 
O=C(NCc1ccc(C(F)(F)F)cc1)c1ccc(C2CC2C(=O)Nc2ccc3cnccc3c2)cc1 (stereo not drawn) [Example E16] | 5 to 75 nM | 2500 to 9000 nM | 
O=C(Nc1ccc2cnccc2c1)c1ccc(C2CC2C(=O)Nc2ccc3cnccc3c2)cc1 (stereo not drawn) [Example E18] | 0.8 to 8 nM | 1000 to 1200 nM | 
O=C(NCC1CCCN1)c1ccc(C2CC2C(=O)Nc2ccc3cnccc3c2)cc1 (stereo not drawn) [Example E19.2] | 6 to 12 nM | 300 to 350 nM | 
CC(C)(C)OC(=O)N1CCC(CNC(=O)c2ccc(C3CC3C(=O)Nc3ccc4cnccc4c3)cc2)C1 (stereo not drawn) [Example E20.1] | 0.5 to 2 nM | 700 to 2000 nM | 
O=C(NCC1CCNC1)c1ccc(C2CC2C(=O)Nc2ccc3cnccc3c2)cc1 (stereo not drawn) [Example E20.2] | 4 to 6 nM | 27 to 150 nM | 
CC(C)(C)OC(=O)N1CCC(CNC(=O)c2ccc(C3CC3C(=O)Nc3ccc4cnccc4c3)cc2)CC1 (stereo not drawn) [Example E29.1] | 0.5 to 1 nM | 1000 to 6000 nM | 
O=C(NCc1ccccn1)c1ccc(C2CC2C(=O)Nc2ccc3c(O)nccc3c2)cc1 (stereo not drawn) [Example E31] | 5 to 7 nM | 375 to 570 nM | 
O=C(NCc1cccnc1)c1ccc(C2CC2C(=O)Nc2cc3ccncc3cc2Br)cc1 (stereo not drawn) [Example E32] | 2.5 to 4.5 nM | 400 to 1300 nM | 
O=C(NCc1cccnc1)c1ccc(C2CC2C(=O)Nc2ccc3cncc(F)c3c2)cc1 (stereo not drawn) [Example E33] | 5 to 8 nM | 75 to 110 nM | 
Cc1cncc2ccc(NC(=O)C3CC3c3ccc(C(=O)NCc4cccnc4)cc3)cc12 (stereo not drawn) [Example E34] | 7 to 14 nM | 30 to 45 nM | 
O=C(NCc1cccnc1)c1ccc(C2CC2C(=O)Nc2ccc3cnccc3c2F)cc1 (stereo not drawn) [Example E35] | 0.5 to 8 nM | 300 to 950 nM | 
CN(C)CCNC(=O)c1ccc(C2CC2C(=O)Nc2ccc3cnccc3c2)cc1 (stereo not drawn) [Example E37] | 4.3 to 9 nM | 800 nM | 

Compound | Ki (Rho Kinase) | Ki (JAK2) | further results
O=C(NCCO)c1ccc(C2CC2C(=O)Nc2ccc3cnccc3c2)cc1 (stereo not drawn) [Example E38] | 7 to 9.5 nM | 136 nM | 
O=C(NCCN1CCCCC1)c1ccc(C2CC2C(=O)Nc2ccc3cnccc3c2)cc1 (stereo not drawn) [Example E39] | 5 to 7 nM | 400 nM | 
O=C(NCc1ccccn1)c1ccc([C@@H]2C[C@H]2C(=O)Nc2ccc3cnccc3c2)cc1 [Example E54, 4-((1R,2R)-2-(isoquinolin-6-ylcarbamoyl)cyclopropyl)-N-(pyridin-2-ylmethyl)benzamide] | 1 to 2 nM | 15 to 90 nM | 
O=C(NCc1ccccn1)c1ccc([C@H]2C[C@@H]2C(=O)Nc2ccc3cnccc3c2)cc1 [Example E55] | 12000 to 52000 nM |  | JAK2 activity (JAK2): inactive
O=C(NCc1cccnc1)c1ccc([C@@H]2C[C@H]2C(=O)Nc2ccc3cnccc3c2F)cc1 [Example E56.1] | 0.1 to 0.5 nM | 40 to 75 nM | 
O=C(NCc1cccnc1)c1ccc([C@@H]2C[C@H]2C(=O)Nc2ccc3cnccc3c2)cc1 [Example E56] | 0.5 to 3 nM | 40 to 120 nM | 
CC(C)(C)OC(=O)N1CCC[C@@H](CNC(=O)c2ccc([C@@H]3C[C@H]3C(=O)Nc3ccc4cnccc4c3)cc2)C1 [Example E57.1] | 0.15 to 1 nM | 45 to 65 nM | 
O=C(NC[C@@H]1CCCNC1)c1ccc([C@@H]2C[C@H]2C(=O)Nc2ccc3cnccc3c2)cc1 [Example E57.2] | 0.1 to 1 nM | 7 nM | 
O=C(OCc1ccccc1)c1ccc(C2CC2C(=O)Nc2ccc3c(O)nccc3c2)cc1 (stereo not drawn) [Example E100.1] | 25 nM |  | JAK2 activity (JAK2): inactive
O=C(OCc1ccccc1)c1ccc(C2CC2C(=O)Nc2cc3ccncc3cc2Cl)cc1 (stereo not drawn) [Example E104.1] | 15 to 75 nM |  | JAK2 activity (JAK2): inactive
O=C(OCc1ccccc1)c1ccc([C@@H]2C[C@H]2C(=O)Nc2ccc3cnccc3c2)cc1 [Example E115, benzyl 4-((1R,2R)-2-(isoquinolin-6-ylcarbamoyl)cyclopropyl)benzoate] | 40 to 75 nM | 3000 to 5000 nM | 
O=C(O)c1ccc([C@@H]2C[C@H]2C(=O)Nc2ccc3cnccc3c2)cc1 [Example E116, 4-((1R,2R)-2-(isoquinolin-6-ylcarbamoyl)cyclopropyl)benzoic acid] | 100 to 400 nM | 400 to 700 nM | 
O=C(Nc1ccccc1Cl)OCc1ccc(C2CC2C(=O)Nc2ccc3cnccc3c2)cc1 (stereo not drawn) [Example E143] | 190 to 250 nM | 1300 to 2700 nM | 
C[C@@H]1OC(c2ccc(C3CC3C(=O)Nc3ccc4cnccc4c3)cc2)O[C@@H]1C (stereo partly drawn) [Example E158, trans-2-(4-((4S,5S)-4,5-dimethyl-1,3-dioxolan-2-yl)phenyl)-N-(isoquinolin-6-yl)cyclopropane-1-carboxamide] | 165 to 215 nM | 1000 nM | 
O=C(NCc1cccnc1)c1cccc(C2CC2C(=O)Nc2ccc3cnccc3c2)c1 (stereo not drawn) [Example E173] | 0.7 to 1 nM | 200 nM | 
CC(C)(C)OC(=O)c1ccc(C2CC2C(=O)Nc2ccc3cnccc3c2)cc1 (stereo not drawn) [Example E191.1] | 105 to 155 nM | 5200 nM | 
O=C(NCc1ccccn1)c1ccc(C2CC2C(=O)Nc2ccc3cnccc3c2)c(F)c1 (stereo not drawn) [Example E194] | 3.5 to 4 nM | 15 nM | 
O=C(Nc1ccc2cnccc2c1)[C@@H]1C[C@H]1c1ccc(S(=O)(=O)Nc2ccccc2)cc1 [Example E265] |  |  | Ki (ROCK1; ROCK1, Table 16): 154 nM; Ki (ROCK2; ROCK2, Table 16): 75 nM
O=C(Nc1ccc2cnccc2c1)[C@@H]1C[C@H]1c1ccc(S(=O)(=O)Nc2cccnc2)cc1 [Example E268] |  |  | Ki (ROCK1; ROCK1, Table 16): 85 nM; Ki (ROCK2; ROCK2, Table 16): 24 nM
O=C(Nc1ccc2cnccc2c1)[C@@H]1C[C@H]1c1ccc(S(=O)(=O)NCc2cccnc2)cc1 [Example E269] |  |  | Ki (ROCK1; ROCK1, Table 16): 25 nM; Ki (ROCK2; ROCK2, Table 16): 9 nM
O=C(Nc1ccc2cnccc2c1)[C@@H]1C[C@H]1c1ccc(S(=O)(=O)NCC2CCNCC2)cc1 [Example E271] |  |  | Ki (ROCK1; ROCK1, Table 16): 9 nM; Ki (ROCK2; ROCK2, Table 16): 8 nM
O=C(Nc1ccc2cnccc2c1)[C@@H]1C[C@H]1c1cccc(S(=O)(=O)Nc2ccccn2)c1 [Example E279] |  |  | Ki (ROCK1; ROCK1, Table 16): 11 nM
